“And” between values parts separate entries of the source, which are not always exact repeats. Identical values can stand only once. Inconclusive results are not listed.
Tested on: BDF1 mice, colon carcinoma 38 sc, T/C %
Experiment: NCI In Vivo Anticancer Drug Screen. Data for tumor model Colon Carcinoma 38 (subcutaneous) in B6D2F1 (BDF1) mice
Conditions: endpoint: median tumor weight (est.), higher = larger tumour
In short: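 T/C readout: treated group (T) measurement over vehicle control group (C) measurement. Endpoint is survival or tumor size in mice bearing a transplanted tumor.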

[1] = dose: 6.25 mg/kg/injection, schedule: Q07DX002 (ip), vehicle: saline
[2] = dose: 12.5 mg/kg/injection, schedule: Q07DX002 (ip), vehicle: saline
[3] = dose: 25.0 mg/kg/injection, schedule: Q07DX002 (ip), vehicle: saline
[4] = dose: 100.0 mg/kg/injection, schedule: Q07DX002 (ip), vehicle: saline
[5] = dose: 6.25 mg/kg/injection, schedule: Q07DX002 (ip), vehicle: saline with Tween-80
[6] = dose: 12.5 mg/kg/injection, schedule: Q07DX002 (ip), vehicle: saline with Tween-80
[7] = dose: 25.0 mg/kg/injection, schedule: Q07DX002 (ip), vehicle: saline with Tween-80
[8] = dose: 50.0 mg/kg/injection, schedule: Q07DX002 (ip), vehicle: saline with Tween-80
[9] = dose: 100.0 mg/kg/injection, schedule: Q07DX002 (ip), vehicle: saline with Tween-80
[10] = dose: 200.0 mg/kg/injection, schedule: Q07DX002 (ip), vehicle: saline with Tween-80
[11] = dose: 400.0 mg/kg/injection, schedule: Q07DX002 (ip), vehicle: saline with Tween-80
[12] = dose: 100.0 mg/kg/injection, schedule: Q07DX002 (ip), vehicle: Klucel (hydroxypropylcellulose) (HPC)
[13] = dose: 200.0 mg/kg/injection, schedule: Q07DX002 (ip), vehicle: Klucel (hydroxypropylcellulose) (HPC)
[14] = dose: 12.5 mg/kg/injection, schedule: Q07DX002 (ip), vehicle: Klucel (hydroxypropylcellulose) (HPC)
[15] = dose: 25.0 mg/kg/injection, schedule: Q07DX002 (ip), vehicle: Klucel (hydroxypropylcellulose) (HPC)

Which T/C (dose: 3.12 mg/kg/injection, schedule: Q07DX002 (ip), vehicle: saline) does the source give for `C[n+]1c(-c2cccc3ccccc23)c2cc(N)ccc2c2ccccc21` here?
The T/C was 107 % of control.

And the T/C (dose: 3.12 mg/kg/injection, schedule: Q07DX002 (ip), vehicle: suspension in saline)?
Its T/C is 160 % of control.

And the T/C [1]?
Its T/C is 122 % of control.

What about the T/C (dose: 6.25 mg/kg/injection, schedule: Q07DX002 (ip), vehicle: suspension in saline) of the same compound?
Its T/C is 110 % of control.

What about the T/C [2] of the same compound?
Its T/C is 64 % of control and 85 % of control.

What about the T/C (dose: 12.5 mg/kg/injection, schedule: Q07DX002 (ip), vehicle: suspension in saline) of the same compound?
Its T/C is 256 % of control.

What about the T/C [3] of the same compound?
Its T/C is 67 % of control and 79 % of control.

And the T/C (dose: 25.0 mg/kg/injection, schedule: Q07DX002 (ip), vehicle: suspension in saline)?
Its T/C is 193 % of control.

`CC(C)C(N)C(=O)Nc1nncs1` (stereo unspecified) was tested. Which T/C [4] did it give?
Its T/C is 108 % of control and 98 % of control.

And the T/C (dose: 200.0 mg/kg/injection, schedule: Q07DX002 (ip), vehicle: saline)?
Its T/C is 68 % of control and 88 % of control.

And the T/C (dose: 400.0 mg/kg/injection, schedule: Q07DX002 (ip), vehicle: saline)?
Its T/C is 45 % of control and 48 % of control.

What does the source list for `CCS/C(SC)=C(/c1ccccc1)[P+](c1ccccc1)(c1ccccc1)c1ccccc1`?
T/C (dose: 1.5 mg/kg/injection, schedule: Q07DX002 (ip), vehicle: Klucel (hydroxypropylcellulose) (HPC)): 87 % of control; T/C (dose: 3.0 mg/kg/injection, schedule: Q07DX002 (ip), vehicle: Klucel (hydroxypropylcellulose) (HPC)): 116 % of control

Which results are given for `Nc1n[n+](-c2ccccc2)no1`?
T/C (dose: 3.12 mg/kg/injection, schedule: Q07DX002 (ip), vehicle: water): 99 % of control and 108 % of control; T/C (dose: 6.25 mg/kg/injection, schedule: Q07DX002 (ip), vehicle: water): 85 % of control and 86 % of control and 98 % of control; T/C (dose: 50.0 mg/kg/injection, schedule: Q07DX002 (ip), vehicle: water): 70 % of control and 74 % of control and 94 % of control

`COC1=C(C)C(=O)C2=C(C1=O)C(CO)N1C(C#N)C3CC4C(C1C2N1CCOC41)N3C` (stereo unspecified) was tested. Which T/C (dose: 0.25 mg/kg/injection, schedule: Q07DX002 (ip), vehicle: saline + alcohol) did it give?
Its T/C is 67 % of control.

And the T/C (dose: 0.5 mg/kg/injection, schedule: Q07DX002 (ip), vehicle: saline + alcohol)?
Its T/C is 109 % of control.

And the T/C (dose: 2.0 mg/kg/injection, schedule: Q07DX002 (ip), vehicle: saline + alcohol)?
The T/C was 153 % of control.

And the T/C (dose: 4.0 mg/kg/injection, schedule: Q07DX002 (ip), vehicle: saline + alcohol)?
Its T/C is 87 % of control.

`CCOC(=O)/N=[N+](\[O-])c1ccccc1` was tested. Which T/C [5] did it give?
Its T/C is 49 % of control.

What about the T/C [6] of the same compound?
Its T/C is 71 % of control.

Which results are given for `CCCCCCCCCCCCCC#CC(=O)O`?
T/C [5]: 76 % of control; T/C [6]: 92 % of control; T/C [7]: 75 % of control; T/C [8]: 84 % of control

For `O=C(O)C(O)C(O)C1[O][Sb][O]C1C(=O)O` (stereo unspecified), which T/C [2] is on record?
The T/C was 90 % of control.

What about the T/C [3] of the same compound?
The T/C was 35 % of control.

And the T/C (dose: 50.0 mg/kg/injection, schedule: Q07DX002 (ip), vehicle: saline)?
The T/C was 109 % of control.

What about the T/C [4] of the same compound?
The T/C was 85 % of control.

With `Nc1ccc2nc3c4ccccc4c(O)n3nc2c1` as the compound, how does the T/C [8] read?
Its T/C is 83 % of control.

And the T/C [9]?
The T/C was 101 % of control.

And the T/C [10]?
The T/C was 94 % of control.

What about the T/C [11] of the same compound?
The T/C was 98 % of control.

How did the T/C [12] turn out when `CCNC(=O)[B-][N+](C)(C)C` was run?
The T/C was 116 % of control.

What about the T/C [13] of the same compound?
Its T/C is 67 % of control.

And the T/C (dose: 400.0 mg/kg/injection, schedule: Q07DX002 (ip), vehicle: Klucel (hydroxypropylcellulose) (HPC))?
Its T/C is 113 % of control and 96 % of control.

How did the T/C (dose: 6.25 mg/kg/injection, schedule: Q07DX002 (ip), vehicle: distilled water + Tween-80) turn out when `COc1ccc2c(c1)CCn1c(C)c(COC(=O)NC(C)C)c(COC(=O)NC(C)C)c1-2` was run?
Its T/C is 76 % of control.

What about the T/C (dose: 12.5 mg/kg/injection, schedule: Q07DX002 (ip), vehicle: distilled water + Tween-80) of the same compound?
The T/C was 102 % of control.

And the T/C (dose: 25.0 mg/kg/injection, schedule: Q07DX002 (ip), vehicle: distilled water + Tween-80)?
Its T/C is 97 % of control.

What about the T/C (dose: 50.0 mg/kg/injection, schedule: Q07DX002 (ip), vehicle: distilled water + Tween-80) of the same compound?
Its T/C is 65 % of control.

And the T/C (dose: 100.0 mg/kg/injection, schedule: Q07DX002 (ip), vehicle: distilled water + Tween-80)?
Its T/C is 48 % of control.

What does the source list for `COC(=O)[C@@H]1c2cc3c(c(O)c2[C@@H](OC)C[C@@]1(C)O)C(=O)c1c(O)cc2c(c1C3=O)OC1O[C@@]2(C)[C@H](O)[C@@H](N(C)C)[C@@H]1O`?
T/C [1]: 101 % of control; T/C [2]: 115 % of control and 121 % of control; T/C (dose: 12.5 mg/kg/injection, schedule: Q07DX003 (ip), vehicle: suspension in saline): 124 % of control; T/C [3]: 102 % of control; T/C (dose: 50.0 mg/kg/injection, schedule: Q07DX003 (ip), vehicle: suspension in saline): 114 % of control; T/C (dose: 100.0 mg/kg/injection, schedule: Q07DX003 (ip), vehicle: suspension in saline): 106 % of control; T/C (dose: 200.0 mg/kg/injection, schedule: Q07DX003 (ip), vehicle: suspension in saline): 104 % of control; T/C (dose: 400.0 mg/kg/injection, schedule: Q07DX003 (ip), vehicle: suspension in saline): 85 % of control

With `CCC1OCC(C(Cl)CCl)O1` (stereo unspecified) as the compound, how does the T/C [14] read?
The T/C was 101 % of control.

What about the T/C (dose: 12.5 mg/kg/injection, schedule: Q07DX003 (ip), vehicle: Klucel (hydroxypropylcellulose) (HPC)) of the same compound?
Its T/C is 82 % of control.

What about the T/C [15] of the same compound?
Its T/C is 95 % of control and 96 % of control.

What about the T/C (dose: 25.0 mg/kg/injection, schedule: Q07DX003 (ip), vehicle: Klucel (hydroxypropylcellulose) (HPC)) of the same compound?
The T/C was 96 % of control.

And the T/C (dose: 50.0 mg/kg/injection, schedule: Q07DX003 (ip), vehicle: Klucel (hydroxypropylcellulose) (HPC))?
The T/C was 92 % of control.

And the T/C (dose: 100.0 mg/kg/injection, schedule: Q07DX003 (ip), vehicle: Klucel (hydroxypropylcellulose) (HPC))?
Its T/C is 69 % of control.

And the T/C [13]?
Its T/C is 203 % of control.

What about the T/C (dose: 200.0 mg/kg/injection, schedule: Q07DX003 (ip), vehicle: Klucel (hydroxypropylcellulose) (HPC)) of the same compound?
Its T/C is 67 % of control.

What about the T/C (dose: 400.0 mg/kg/injection, schedule: Q07DX003 (ip), vehicle: Klucel (hydroxypropylcellulose) (HPC)) of the same compound?
Its T/C is 39 % of control.

Which results are given for `N#CCCSC(=S)C1CCCC1=N` (stereo unspecified)?
T/C [7]: 107 % of control; T/C [8]: 95 % of control; T/C [9]: 90 % of control; T/C [10]: 99 % of control; T/C [11]: 71 % of control; T/C (dose: 800.0 mg/kg/injection, schedule: Q07DX002 (ip), vehicle: saline with Tween-80): 86 % of control

`N=C(N)CCNC(=O)C1CCC(N)=N1` (stereo unspecified) was tested. Which T/C (dose: 3.38 mg/kg/injection, schedule: Q07DX002 (ip), vehicle: saline) did it give?
The T/C was 97 % of control.

What about the T/C (dose: 6.75 mg/kg/injection, schedule: Q07DX002 (ip), vehicle: saline) of the same compound?
Its T/C is 115 % of control.

And the T/C (dose: 13.5 mg/kg/injection, schedule: Q07DX002 (ip), vehicle: saline)?
Its T/C is 120 % of control.

What about the T/C (dose: 27.0 mg/kg/injection, schedule: Q07DX002 (ip), vehicle: saline) of the same compound?
Its T/C is 91 % of control.

With `CCCCCCCCCCCCCCC/C([O-])=N/[N+](C)(C)CC(C)O` (stereo unspecified) as the compound, how does the T/C (dose: 25.0 mg/kg/injection, schedule: Q01DX001 (ip), vehicle: saline) read?
The T/C was 164 % of control.

And the T/C (dose: 200.0 mg/kg/injection, schedule: Q01DX001 (ip), vehicle: saline)?
Its T/C is 120 % of control.

What about the T/C (dose: 400.0 mg/kg/injection, schedule: Q01DX001 (ip), vehicle: saline) of the same compound?
The T/C was 85 % of control.

What does the source list for `C[C@]12CC[C@@H]3c4ccc(O)cc4CC[C@H]3[C@@H]1CC[C@@H]2O`?
T/C (dose: 6.25 mg/kg/injection, schedule: Q07DX002 (ip), vehicle: Klucel (hydroxypropylcellulose) (HPC)): 83 % of control; T/C [14]: 108 % of control and 249 % of control; T/C [15]: 282 % of control and 99 % of control; T/C (dose: 50.0 mg/kg/injection, schedule: Q07DX002 (ip), vehicle: Klucel (hydroxypropylcellulose) (HPC)): 260 % of control; T/C [12]: 282 % of control; T/C [13]: 117 % of control and 271 % of control

`Cc1ccc2c(ccc(CC(=S)[S-])[n+]2C)c1` was tested. Which T/C [12] did it give?
Its T/C is 111 % of control and 93 % of control.

What about the T/C [13] of the same compound?
Its T/C is 122 % of control.

Which results are given for `COC1=C(N)C(=O)c2nc(-c3nc(C(=O)O)c(C)c(-c4ccc(OC)c(OC)c4O)c3N)ccc2C1=O`?
T/C (dose: 0.05 mg/kg/injection, schedule: Q07DX003 (ip), vehicle: Klucel (hydroxypropylcellulose) (HPC)): 110 % of control; T/C (dose: 0.1 mg/kg/injection, schedule: Q07DX003 (ip), vehicle: Klucel (hydroxypropylcellulose) (HPC)): 93 % of control; T/C (dose: 0.2 mg/kg/injection, schedule: Q07DX003 (ip), vehicle: Klucel (hydroxypropylcellulose) (HPC)): 111 % of control; T/C (dose: 0.4 mg/kg/injection, schedule: Q07DX003 (ip), vehicle: Klucel (hydroxypropylcellulose) (HPC)): 83 % of control

`COc1ccc(C(Cn2ccnc2)Sc2ccc(Cl)c(Cl)c2)cc1` (stereo unspecified) was tested. Which T/C [7] did it give?
Its T/C is 63 % of control and 87 % of control.

And the T/C [9]?
The T/C was 114 % of control.
